Earlier results on two molecules are cited in patent US6306900A, “Enteric coated pharmaceutical compositions” (priority 1996, dated 2001).

The structures appear in SMILES notation.

In general, bioavailability refers to dose-corrected exposure relative to a reference, in per cent.

The conditions of series [1]: W. A. Lee et al.
The conditions of series [2]: patients; origin not known.
For series [3] the following is noted: in words.

Take `COc1c(C)c2c(c(O)c1C/C=C(\C)CCC(=O)OCCN1CCOCC1)C(=O)OC2` [MMF, mycophenolate mofetil]: the bioavailability in series [1] is listed as 100%. The side-effects result in series [2] is reported as “gastro-intestinal side effects”.

With `COc1c(C)c2c(c(O)c1C/C=C(\C)CCC(=O)O)C(=O)OC2` [MPA, Mycophenolic acid], the known activity result in series [3] is “anti-tumor, anti-viral, immunosuppressive, anti-psoriatic, and anti-inflammatory activity”. Also, in series [1], the bioavailability is 43%.
